Measured values reported in patent US20250179059A1 (The Regents of the University of California, priority 2021, published 2025).
Read-outs that look alike come from different tables or passages of the source.

Experiments:
[1] = biological target: T1, human BRD4 bromodomain II (Homo sapiens, UniProt O60885); assay: Bromodomain binding assay (AlphaScreen), BRD4 BDII
T1 construct: human BRD4 bromodomain II [based on Genbank NM_058243, residues 349-460]; host or cells: E. coli
How it was run: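 First, His6-tagged BRD4 bromodomain (BDI residues 44-170 or BDII residues 349-460) is incubated with compound for 30 min at room temperature. Next the biotinylated H4 peptide is added for 30 min, then donor and acceptor beads, with 60 min in the dark before AlphaScreen reading and IC50 fitting.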

[2] = tested on: human SKM-1 acute myeloid leukemia cells; assay: SKM-1 antiproliferation cell-based assay (ATPlite); details: Homo sapiens
How it was run: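 Log-phase cells in RPMI 1640/15% FBS were seeded at 34722 cells/mL and exposed for 4 days to nine-concentration DMSO serial dilutions in triplicate. Viability was read as ATP luminescence (ATPlite 1step), and IC50 values came from variable-slope non-linear regression.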

[3] = AlphaScreen assay, Table C2, read-out: BRD4 BDII IC50
[4] = SKM-1, 96 h, SKM-1 antiproliferation assay, 4 days, Table C2

| IC50 [1, 3] | GI50 [2, 4] | IC50 ([1]; BRD4 BDII AlphaScreen assay, read-out: BRD4 BD2 IC50) | GI50 ([2]; SKM-1, SKM-1 antiproliferation assay) | SMILES |
| --- | --- | --- | --- | --- |
| 0.01 to 1 nM | 0.3 to 30 nM |  |  | Cn1ccn(-c2ccc(-c3cc(F)cc(-c4cc(Cl)cc(N5CCN(C(C)(C)C)CC5)c4)c3O)cc2Cl)c1=O [Example 827, 1-(3″-(4-(tert-butyl)piperazin-1-yl)-3,5″-dichloro-5′-fluoro-2′-hydroxy-[1,1′:3′,1″-terphenyl]-4-yl)-3-methyl-1H-imidazol-2(3H)-one] |
| 0.01 to 1 nM | 0.3 to 30 nM |  |  | Cc1cc(-c2cc(F)cc(-c3ccc(-n4ccn(C)c4=O)c(Cl)c3)c2O)cc(N2CCN(C(C)(C)C)CC2)c1 [Example 828, 1-(3″-(4-(tert-butyl)piperazin-1-yl)-3-chloro-5′-fluoro-2′-hydroxy-5″-methyl-[1,1′:3′,1″-terphenyl]-4-yl)-3-methyl-1H-imidazol-2(3H)-one] |
| 0.01 to 1 nM | 0.3 to 30 nM |  |  | Cc1ncc(-c2cc(F)cc(-c3ccc(-n4ccn(C)c4=O)c(Cl)c3)c2O)cc1N1CC(C)(O)C2(CC2)C1 (stereo not shown) [Example 829, 1-(3-chloro-5′-fluoro-2′-hydroxy-3′-(5-(7-hydroxy-7-methyl-5-azaspiro[2.4]heptan-5-yl)-6-methylpyridin-3-yl)-[1,1′-biphenyl]-4-yl)-3-methyl-1H-imidazol-2(3H)-one] |
| 1 to 10 nM | 0.3 to 30 nM |  |  | COCC(C)(C)N1CCN(c2cccc(-c3cc(F)cc(-c4ccc(-n5ccn(C)c5=O)c(Cl)c4)c3O)c2)CC1 [Example 830, 1-(3-chloro-5′-fluoro-2′-hydroxy-3″-(4-(1-methoxy-2-methylpropan-2-yl)piperazin-1-yl)-[1,1′:3′,1″-terphenyl]-4-yl)-3-methyl-1H-imidazol-2(3H)-one] |
| 1 to 10 nM | 0.3 to 30 nM |  |  | CC(C)N1CCN(c2cc(-c3cc(F)cc(-c4ccc(-n5ccn(C)c5=O)c(Cl)c4)c3O)cnc2C(F)F)CC1 [Example 831, 1-(3-chloro-3′-(6-(difluoromethyl)-5-(4-isopropylpiperazin-1-yl)pyridin-3-yl)-5′-fluoro-2′-hydroxy-[1,1′-biphenyl]-4-yl)-3-methyl-1H-imidazol-2(3H)-one] |
| 0.01 to 1 nM | 0.3 to 30 nM |  |  | Cn1ccn(-c2ccc(-c3cc(F)cc(-c4cnnc(N5CC[C@@](C)(O)C5)c4)c3O)cc2Cl)c1=O [Example 832, (R)-1-(3-chloro-5′-fluoro-2′-hydroxy-3′-(6-(3-hydroxy-3-methylpyrrolidin-1-yl)pyridazin-4-yl)-[1,1′-biphenyl]-4-yl)-3-methyl-1H-imidazol-2(3H)-one] |
| 1 to 10 nM | 30 to 300 nM |  |  | COc1ncc(-c2cc(F)cc(-c3ccc(-n4ccn(C)c4=O)c(Cl)c3)c2O)cc1N1CC(C)(O)C2(CC2)C1 (stereo not shown) [Example 833, 1-(3-chloro-5′-fluoro-2′-hydroxy-3′-(5-(7-hydroxy-7-methyl-5-azaspiro[2.4]heptan-5-yl)-6-methoxypyridin-3-yl)-[1,1′-biphenyl]-4-yl)-3-methyl-1H-imidazol-2(3H)-one] |
| 1 to 10 nM | 0.3 to 30 nM |  |  | COc1ncc(-c2cc(F)cc(-c3ccc(-n4ccn(C)c4=O)c(Cl)c3)c2O)cc1N1CC(C)(O)C1 [Example 834, 1-(3-chloro-5′-fluoro-2′-hydroxy-3′-(5-(3-hydroxy-3-methylazetidin-1-yl)-6-methoxypyridin-3-yl)-[1,1′-biphenyl]-4-yl)-3-methyl-1H-imidazol-2(3H)-one] |
| 0.01 to 1 nM | 30 to 300 nM |  |  | Cn1ccn(-c2ccc(-c3cc(F)cc(-c4cnnc(N5CC[C@](C)(O)C5)c4)c3O)cc2Cl)c1=O [Example 837, (S)-1-(3-chloro-5′-fluoro-2′-hydroxy-3′-(6-(3-hydroxy-3-methylpyrrolidin-1-yl)pyridazin-4-yl)-[1,1′-biphenyl]-4-yl)-3-methyl-1H-imidazol-2(3H)-one] |
| 0.01 to 1 nM | 30 to 300 nM |  |  | COc1ncc(-c2cc(F)cc(-c3ccc(-n4ccn(C)c4=O)c(Cl)c3)c2O)cc1N1CC(O)(CO)C1 [Example 838, 1-(3-chloro-5′-fluoro-2′-hydroxy-3′-(5-(3-hydroxy-3-(hydroxymethyl)azetidin-1-yl)-6-methoxypyridin-3-yl)-[1,1′-biphenyl]-4-yl)-3-methyl-1H-imidazol-2(3H)-one] |
| 0.01 to 1 nM | 0.3 to 30 nM |  |  | Cc1ncc(-c2cc(F)cc(-c3ccc(-n4ccn(C)c4=O)c(Cl)c3)c2O)cc1N1CC(O)(CO)C1 [Example 839, 1-(3-chloro-5′-fluoro-2′-hydroxy-3′-(5-(3-hydroxy-3-(hydroxymethyl)azetidin-1-yl)-6-methylpyridin-3-yl)-[1,1′-biphenyl]-4-yl)-3-methyl-1H-imidazol-2(3H)-one] |
| 0.01 to 1 nM | 0.3 to 30 nM |  |  | Cn1ccn(-c2ccc(-c3cc(F)cc(-c4ccnc(N5CCCN(C(C)(C)C)CC5)c4)c3O)cc2Cl)c1=O [Example 840, 1-(3′-(2-(4-(tert-butyl)-1,4-diazepan-1-yl)pyridin-4-yl)-3-chloro-5′-fluoro-2′-hydroxy-[1,1′-biphenyl]-4-yl)-3-methyl-1H-imidazol-2(3H)-one] |
| 1 to 10 nM | 30 to 300 nM |  |  | Cc1ccc(-c2cc(F)cc(-c3ccc(-n4ccn(C)c4=O)c(Cl)c3)c2O)cc1N1CC(O)(CO)C1 [Example 841, 1-(3-chloro-5′-fluoro-2′-hydroxy-3″-(3-hydroxy-3-(hydroxymethyl)azetidin-1-yl)-4″-methyl-[1,1′:3′,1″-terphenyl]-4-yl)-3-methyl-1H-imidazol-2(3H)-one] |
| 1 to 10 nM | 30 to 300 nM |  |  | Cn1ccn(-c2ccc(-c3cc(F)cc(-c4ccc(Cl)c(N5CC[C@@](C)(O)C5)c4)c3O)cc2Cl)c1=O [Example 842, (R)-1-(3,4″-dichloro-5′-fluoro-2′-hydroxy-3″-(3-hydroxy-3-methylpyrrolidin-1-yl)-[1,1′:3′,1″-terphenyl]-4-yl)-3-methyl-1H-imidazol-2(3H)-one] |
| 0.01 to 1 nM | 0.3 to 30 nM |  |  | Cc1ncc(-c2cc(F)cc(-c3ccc(-n4ccn(C)c4=O)c(Cl)c3)c2O)cc1N1CC(C)(O)C1 [Example 843, 1-(3-chloro-5′-fluoro-2′-hydroxy-3′-(5-(3-hydroxy-3-methylazetidin-1-yl)-6-methylpyridin-3-yl)-[1,1′-biphenyl]-4-yl)-3-methyl-1H-imidazol-2(3H)-one] |
| 1 to 10 nM | 0.3 to 30 nM |  |  | Cc1ncc(-c2cc(F)cc(-c3ccc(-n4ccn(C)c4=O)c(Cl)c3)c2O)cc1N1CCCN(C(C)(C)C)CC1 [Example 844, 1-(3′-(5-(4-(tert-butyl)-1,4-diazepan-1-yl)-6-methylpyridin-3-yl)-3-chloro-5′-fluoro-2′-hydroxy-[1,1′-biphenyl]-4-yl)-3-methyl-1H-imidazol-2(3H)-one] |
| 1 to 10 nM | 30 to 300 nM |  |  | Cc1ccc(-c2cc(F)cc(-c3ccc(-n4ccn(C)c4=O)c(Cl)c3)c2O)cc1N1CC(C)(O)C1 [Example 845, 1-(3-chloro-5′-fluoro-2′-hydroxy-3″-(3-hydroxy-3-methylazetidin-1-yl)-4″-methyl-[1,1′:3′,1″-terphenyl]-4-yl)-3-methyl-1H-imidazol-2(3H)-one] |
| 1 to 10 nM | 0.3 to 30 nM |  |  | COc1ncc(-c2cc(F)cc(-c3ccc(-n4ccn(C)c4=O)c(Cl)c3)c2O)cc1N1CCN(C(C)(C)C2CC2)CC1 [Example 847, 1-(3-chloro-3′-(5-(4-(2-cyclopropylpropan-2-yl)piperazin-1-yl)-6-methoxypyridin-3-yl)-5′-fluoro-2′-hydroxy-[1,1′-biphenyl]-4-yl)-3-methyl-1H-imidazol-2(3H)-one] |
| 10 to 100 nM | 0.3 to 30 nM |  |  | CCc1ncc(-c2cc(F)cc(-c3ccc(-n4ccn(C)c4=O)c(Cl)c3)c2O)cc1N1CCN(C(C)(C)C)CC1 [Example 848, 1-(3′-(5-(4-(tert-butyl)piperazin-1-yl)-6-ethylpyridin-3-yl)-3-chloro-5′-fluoro-2′-hydroxy-[1,1′-biphenyl]-4-yl)-3-methyl-1H-imidazol-2(3H)-one] |
|  |  | 0.01 to 1 nM | 30 to 300 nM | Cn1ccn(-c2ccc(-c3cc(F)cc(-c4cnc(C5CC5)c(N5CC(C)(O)C6(CC6)C5)c4)c3O)cc2Cl)c1=O (stereo not shown) [Example 849, 1-(3-Chloro-3′-(6-cyclopropyl-5-(7-hydroxy-7-methyl-5-azaspiro[2.4]heptan-5-yl)pyridin-3-yl)-5′-fluoro-2′-hydroxy-[1,1′-biphenyl]-4-yl)-3-methyl-1H-imidazol-2(3H)-one] |

| SMILES | IC50 [1, 3] | GI50 [2, 4] | IC50 ([1]; BRD4 BDII AlphaScreen assay, read-out: BRD4 BD2 IC50) | GI50 ([2]; SKM-1, SKM-1 antiproliferation assay) |
| --- | --- | --- | --- | --- |
| Cc1ncc(-c2cc(F)cc(-c3ccc(-n4ccn(C)c4=O)c(Cl)c3)c2O)cc1N1CC2CCC(C1)N2C(C)C [Example 835, 1-(3-chloro-5′-fluoro-2′-hydroxy-3′-(5-(8-isopropyl-3,8-diazabicyclo[3.2.1]octan-3-yl)-6-methylpyridin-3-yl)-[1,1′-biphenyl]-4-yl)-3-methyl-1H-imidazol-2(3H)-one] | 1 to 10 nM | 0.3 to 30 nM |  |  |
| COc1ncc(-c2cc(F)cc(-c3ccc(-n4ccn(C)c4=O)c(Cl)c3)c2O)cc1N1CC2CCC(C1)N2C(C)C [Example 836, 1-(3-chloro-5′-fluoro-2′-hydroxy-3′-(5-(8-isopropyl-3,8-diazabicyclo[3.2.1]octan-3-yl)-6-methoxypyridin-3-yl)-[1,1′-biphenyl]-4-yl)-3-methyl-1H-imidazol-2(3H)-one] | 1 to 10 nM | 0.3 to 30 nM |  |  |
| CC(C)N1C2CCC1CN(c1cccc(-c3cc(F)cc(-c4ccc(-n5ccn(C)c5=O)c(Cl)c4)c3O)c1)C2 [Example 846, 1-(3-chloro-5′-fluoro-2′-hydroxy-338-(8-isopropyl-3,8-diazabicyclo[3.2.1]octan-3-yl)-[1,1′:3′,1″-terphenyl]-4-yl)-3-methyl-1H-imidazol-2(3H)-one] | 0.01 to 1 nM | 0.3 to 30 nM |  |  |
